Measured values: patent publication EP0751957B1, “PEPTIDE FRAGMENTS OF MICROBIAL STRESS PROTEINS AND PHARMACEUTICAL COMPOSITION MADE THEREOF FOR THE TREATMENT AND PREVENTION OF INFLAMMATORY DISEASES” (priority 1994, dated 2004)
Entries after “also recorded” stand apart in the source; their conditions may differ.

Columns and labels:
[1] = tested on: primed lymph node cells (PLNC); assay: T cell proliferation assay, PLNC from peptide-immunised rats; assay type: cell-based, Lewis rats; details: in vitro peptide 20 µg/ml
Procedure: (§1) Immunisations with synthetic peptides and primed lymph node populations: Rats were immunised with 50 µg of synthetic peptide in PBS/DDA in each hind footpad (i.e. 50 µg/footpad, 100 µg/rat). Ten days later, draining popliteal lymph nodes were removed, disaggregated, washed three times and used as a source of primed lymph node cells (PLNC). In some experiments, PLNC were derived as pooled inguinal and popliteal lymph nodes from AA rats 35-42 days post Mt immunisation.
(§2) T cell proliferation assays: PLNC were cultured in triplicate in 200 µl flat bottom microtitre wells (Costar) at 2 x 10^5 cells per well with or without antigen. In initial experiments PLNC were tested for responsiveness to individual peptides at concentrations of 5 and 20 µg/ml, and Mt, hsp65 and PPD over a range of concentrations. Concanavalin A (2 µg/ml) was used as a positive control for T cell proliferation. Cultures were incubated for 96 h at 37°C in a humidified atmosphere of 5% CO2. Cultures were pulsed for the final 16 h with [^3H] TdR (Amersham, U.K., 1 uCi/well) and TdR uptake measured using a liquid scintillation β counter. Assays using T cell lines were performed as above using 2 x 10^4 line cells per well with irradiated (30 Gy) syngeneic accessory cells (either 3 x 10^5 splenocytes/well or 10^6 thymocytes/well). Results are expressed as mean counts per minute (cpm) of triplicate cultures. In experiments where responses to Ag were low, responses were considered significant if the stimulation index (S.I. = mean cpm with Ag - mean cpm without Ag) was greater than two and Student's t tests gave p < 0.01.
To determine whether immunisation of rats with synthetic peptides was effective at priming for T cell reactivity to hsp65 epitopes, in vitro proliferative responses following immunisation with 100 µg of peptide each containing individual T cell epitopes were examined. PLNC isolated ten days after immunisation were tested for response to the immunising peptide, overlapping peptides and to hsp65 (Table II). PLNC responses were observed after immunisation with seven of the nine peptides. Responses were not seen after immunisation with peptides 386-400 and 511-525.
(§3) T cell responses by immunisation with hsp65 peptides. Rats were immunised with synthetic peptides containing individual hsp65 epitopes (100 µg peptide/DDA per rat). Ten days later PLNC were isolated and tested for responses to overlapping peptides (20 µg/ml). Peptide-specific T cell lines were generated by bulk in vitro stimulation of PLNC with immunising peptide. Lines were tested for responses to overlapping peptides (10 µg/ml). […] Results are expressed as mean cpm of triplicate cultures. All SEM were less than 20%.

[2] = tested on: Peptide-specific T cell lines; assay: T cell proliferation assay, peptide-specific T cell lines from peptide-immunised rats; assay type: cell-based, Lewis rats; details: for CPM T Cell Line: in vitro peptide 10 µg/ml
Procedure: as §2
T cell lines: T cell lines with specificity for mycobacterial hsp65 or peptides were generated by bulk stimulation of either hsp65-PLNC or Mt-PLNC. PLNC were cultured at 5 x 10^6/ml in culture medium supplemented with 2% normal rat serum (NRS) in the presence of 10 µg/ml Ag. After three days viable cells were harvested using a ficoll-isopaque gradient and cultured for a further four days in culture medium + 5% FCS and 5% TCGF (Con A-activated rat spleen supernatant). Seven days after initial stimulation lines were restimulated with irradiated spleen accessory cells and 10 µg/ml Ag in culture medium + NRS. Lines were maintained ir. this seven day restimulation cycle. Short term epitope-specific T cell lines were also generated from rats immunised with synthetic peptides. Peptide-PLNC were cultured as above in the presence of 10 µg/ml peptide.
Bulk stimulation generated T cell lines to eight of the nine peptides tested. These eight lines were tested for specificity after four in vitro restimulations (Table II). All responded to the immunising peptide and, to some extent, to hsp65.
as §3

[3] = tested on: hsp65-PLNC; assay: T cell proliferation assay, hsp65-PLNC; assay type: cell-based, Lewis rats; details: PLNC from hsp65-immunised rats; peptides 5 and 20 µg/ml
Procedure: Immunisations and primed lymph node populations: Rats were immunised with either Mt or hsp65. Mt was suspended at 5 mg/ml in IFA or DDA and 100 µl injected in each hind footpad (i.e. 500 µg/footpad, 1 mg/rat). Hsp65 (1 mg/ml in PBS) was mixed 1:1 with DDA and 100 µl injected (i.e. 50 µg/footpad, 100 µg/rat). Ten to 21 days later, draining popliteal lymph nodes were removed, disaggregated, washed three times and used as a source of primed lymph node cells (PLNC). In control experiments splenocytes and lymph nodes from unimmunised rats and PLNC from rats immunised with IFA or DDA/PBS alone were used.
as §2
Hsp65-PLNC were analysed for responsiveness to a panel of peptides covering the entire sequence of hsp65 (Fig. 3a). […] In terms of magnitude of response, three regions of the molecule (residues 176-190, 211-230 and 221-240) appeared to contain the "dominant" T cell epitopes, while regions 86-100. 251-270, 396-410 and 506-525 contained "subdominant" or minor epitopes.

[4] = tested on: adjuvant arthritis; assay: Adjuvant arthritis (AA) induced with Mt in IFA, clinical arthritis score; assay type: in vivo, Lewis rats
Procedure: (§4) Induction and clinical assessment of experimental arthritis: Arthritis was induced by a single intradermal injection in the base of the tail. AA was induced with 0.5 mg Mt suspended in 100 µl IFA. CP20961 arthritis was induced with 2 mg CP20961 in 100 µl light mineral oil (Sigma). Rats were examined daily for clinical signs of arthritis. Severity of arthritis was assessed by scoring each paw from zero to four based on degree of swelling, erythema and deformity of the joints. Thus the maximum possible arthritis score was 16.
(§5) Modulation of arthritis with hsp65 peptides and epitope-specific T cell lines: Synthetic peptides corresponding to eight T cell epitopes present in mycobacterial hsp65 were tested for protective effects on arthritis development. Rats were immunised with 100 µg of individual peptide seven days prior to arthritis induction. Peptides were immunised in each hind footpad in 10 mg/ml DDA (50 µl/pad). Control rats received only PBS/DDA. Epitope-specific T cell lines were also tested for protective activity by intravenous administration of lines at the time of arthritis induction. T cell lines were restimulated in vitro with irradiated spleen APC and specific peptide. Four days later T cell blasts were harvested by ficoll gradient, washed and applied to a second ficoll gradient to remove any contaminating APC. T cells were washed twice in wash medium and twice in PBS and finally suspended at 2.5x10^7/ml in PBS. Immediately prior to injection of Mt, 200 µl (i.e. 5x10^6) T cells were injected i.v. in the tail vein.
The effects of preimmunisation with synthetic peptides containing individual epitopes on the development of AA were analysed (Fig. 7). The eight peptides which primed for epitope specific T cells were tested. Rats were immunised with 100 µg of peptide 7 days prior to AA-induction with Mt.

[5] = tested on: T cell; assay: T cell proliferative responses in humans (initial testing); assay type: cell-based; details: some autoimmune disease patients
Source text: Thus, already the rat-defined T cell epitopes themselves could be used for therapeutical intervention in some individuals (certain HLA types).

[6] = tested on: CP20961-induced arthritis; assay: CP20961-induced arthritis, clinical arthritis score; assay type: in vivo, Lewis rats; details: 100 µg peptide in DDA 7 days prior to 2 mg CP20961 in 100 µl mineral oil i.d.
Procedure: as §4
as §5, with “T cells were washed twice in wash medium and twice in PBS and finally suspended at 2.5x10^7/ml in PBS. Immediately prior to injection of Mt, 200 µl (i.e. 5x10^6) T cells were injected i.v. in the tail vein.” left out

[7] = tested on: PLNC from preimmunised rats; assay: T cell proliferation assay, PLNC of peptide-preimmunised AA rats 42 days after Mt; assay type: cell-based, Lewis rats; details: rats preimmunised with the same peptide; peptide 20µg/ml
Procedure: as §1, §2
PLNC from preimmunised rats were tested for responsiveness to hsp65 epitopes 42 days after Mt administration (Fig. 8). […] Responses to peptide 176-190 containing the AA-associated epitope were found in all PLNC populations (and enhanced after 176-190 preimmunisation) with one exception.

[8] = tested on: T cell lines generated from hsp65-immunised rats; assay: T cell proliferation assay, epitope-specific T cell lines generated from hsp65-immunised rats; assay type: cell-based, Lewis rats; details: Line H.52
Procedure: as §2, with “In experiments where responses to Ag were low, responses were considered significant if the stimulation index (S.I. = mean cpm with Ag - mean cpm without Ag) was greater than two and Student's t tests gave p < 0.01.” left out
T cell lines were generated by restimulation of hsp65-PLNC with individual synthetic peptides. For epitopes where responses had been detected to two overlapping peptides, the line was generated using the peptide that induced strongest proliferation of hsp65-PLNC (e.g. for epitope 216-225, peptide 211-225 was used). […]

[9] = 100 µg peptide in DDA, hind footpads, 7 days prior to AA induction with Mt

Substance | CPM PLNC ([1]; PLNC 10 days after immunisation with peptide 86-100 (100 µg/DDA), mean of triplicates) [cpm] | CPM T Cell Line ([2]; T cell line from 86-100-immunised PLNC) [cpm] | hsp65-PLNC proliferative response to peptide [3] | protection against AA development after peptide preimmunisation [4, 9] | T cell proliferative responses in autoimmune disease patients [5] | CPM PLNC ([1]; PLNC 10 days after immunisation with peptide 211-225 (100 µg/DDA)) [cpm] | CPM T Cell Line ([2]; T cell line from 211-225-immunised PLNC) [cpm] | protection against CP20961-induced arthritis after peptide preimmunisation [6] | PLNC response to the immunising peptide 42 days after Mt administration [7] | CPM PLNC ([1]; PLNC 10 days after immunisation with peptide 256-270 (100 µg/DDA)) [cpm] | CPM T Cell Line ([2]; T cell line from 256-270-immunised PLNC) [cpm] | response of the line generated against M.256-270 (line P.m52) ([2]; irradiated syngeneic spleen APC) | level of proliferation relative to the rat peptide [8] | mean maximum arthritis score ([4]; 100 µg peptide in DDA, hind footpads, 7 days prior to AA induction with Mt, 24 rats in five experiments, maximum possible score 16) | protection against AA development after peptide preimmunisation ([4]; 100 µg peptide in DDA, hind footpads, 7 days prior to AA induction with Mt, listed as hsp65 256-270) | rats that developed clinical signs of arthritis ([4]; of the 24 rats preimmunised with peptide, signs milder than in control rats) | permanent joint deformities ([4]; preimmunised rats that developed AA)
peptide 86-100: synthetic 15mer, sequence 86-100 of SEQ ID No.1 (mycobacterial hsp65) (DGTTTATVLAQALVR; UniProt P9WPE7 86-100, looked up, fragment) | 57925 | 49422 | subdominant | moderate protection; also recorded: moderate effect | capable of inducing T cell proliferative responses | – | – | – | – | – | – | – | – | – | – | – | –
peptide 211-225: synthetic 15mer, residues 211-225 of mycobacterial hsp65; control peptide in arthritis models | – | – | – | did not influence AA development | – | 39765 | 121978 | did not | strong responses | – | – | – | – | – | – | – | –
peptide 256-270: synthetic 15mer, sequence 256-270 of SEQ ID No.1 (mycobacterial hsp65) | – | – | – | striking protective effect; also recorded: strong protection; also recorded: clear protective effects | capable of inducing T cell proliferative responses | – | – | strongly protected | marginal PLNC responses | 16423 | 69037 | responded | five to ten fold higher | 1.7 | Protection was observed | twelve | remarkably free of permanent deformities
